How the values were obtained:
[1] = test system: ABC1; conditions: dose-dependent; Becq et al. 1997, Hamon et al. 1997; cited from earlier work
[2] = test system: normal fibroblasts; assay: Apo A-I-mediated lipid efflux from normal fibroblasts with ABC1 transport inhibitors; assay type: cell-based, human; conditions: 0.2 or 0.4 mM, 6 hours, 5 μg/ml apo A-I
Experimental: To test whether inhibition of ABC1 could affect the process of apolipoprotein-mediated cholesterol efflux, two compounds reported to be ABC1 inhibitors were tested in assays which monitor apolipoprotein mediated cholesterol efflux. […] The apolipoprotein-mediated cholesterol efflux assays were performed as described in Example 1 with the noted changes.
Cholesterol-loaded and [^3H]cholesterol-labeled normal fibroblasts (n=3) were incubated for 6 hours with or without 5 μg/ml apo A-I and either 0, 0.2 mM, or 0.4 mM DIDS. In addition, cholesterol-loaded and [^3H]cholesterol-labeled normal fibroblasts (n=3) were incubated for 6 hours with or without 5 μg/ml apo A-I and either 0, 0.2 mM, or 0.4 mM BSP. […] The results are shown in FIG. 5 as the mean±SD (n=3) of efflux in the presence of apo A-I after subtraction of values for apo A-I-free medium. […] The results of these tests mimic the efflux defect in fibroblasts derived from patients with TD, described in Example 1.

[3] = test system: ABC1 5' flanking region; assay: Luciferase reporter constructs with portions of the ABC1 5' flanking region in RAW 264.7 cells; assay type: cell-based, mouse; conditions: wild-type sequence nt 1080-1643 of SEQ ID NO: 3
Experimental: (§1) Luciferase Assay: Following transfection, the cells in each well were lysed in 70 μl of 1× cell lysis reagent (Promega, Madison, Wis., Cat. #E3971), subjected to one freeze-thaw cycle, and the lysate cleared by centrifugation for 5 minutes at 12,000 g. After centrifugation, 100 μl of luciferase assay reagent (Promega, Madison, Wis.; Cat. #E1501) was added to 10 μl of lysate. The luciferase activity of each lysate was measured as light units using a luminometer. Additionally, the β-galactosidase activity of each lysate was measured using the chemiluminescent assay reagents supplied in the Galacto-light kit according to the manufacturer's instructions (Tropix Inc., Bedford, Mass.: Cat. #BL100G). The normalized luciferase activity for each lysate was determined by dividing the luciferase activity value by the determined 0-galactosidase value and reported as relative light units.
Construction of Reporter Constructs: Reporter construct pAPR1 and control reporter construct pGL3-Basic were obtained as described in Example 15. […]
Transfection of Reporter Constructs: The RAW 264.7 cells were maintained in culture and transfected with either pGL3-Basic (1 μg), pAPR1 (1 μg), or one of the other reporter constructs according to the method described in Example 15. […] The luciferase activity was measured and reported as relative light units as described in Example 15.

[4] = test system: ABC1 promoter; assay: pAPR1 luciferase reporter under control of the ABC1 promoter in RAW 264.7 cells; assay type: cell-based, mouse; conditions: pAPR1-transfected RAW 264.7; 10 μM each ligand (20 μM total for both), 24 hours
From the text: Construction of Reporter Plasmids: Plasmid pGL3-Basic (Promega, Madison, Wis.; Cat. #E1751) was used as a control plasmid containing the promoterless luciferase gene. The reporter construct containing the ABC1 promoter and luciferase gene was made by cloning a genomic fragment from the 5′ flanking region of the ABC1 gene (hAPRI 5′ promoter, corresponding to nucleotides 1080-1643 of SEQ ID NO: 3) into the Sacd site of the GL3-Basic plasmid to generate plasmid GL-6a. Next, plasmid GL-6a was digested with SneI and Acc651. […]
as §1, with “After centrifugation, 100 μl of luciferase assay reagent (Promega, Madison, Wis.; Cat. #E1501) was added to 10 μl of lysate.” left out, “units. […]” for “units.”

[5] = test system: RAW 264.7 cells; assay: Apo A-I-mediated cholesterol efflux from cholesterol-loaded RAW 264.7 macrophage cells; conditions: for increase in apoAI-induced cholesterol efflux: 9 cis-retinoic acid 30 ng/ml, 22(R)hydroxycholesterol 5 μg/ml, fenfibrate 3 μg/ml, PGI2 25 nm, PGE1 25 nM
Experimental: Assay to Measure Lipid Efflux: Apo AI-mediated efflux of cholesterol and, phospholipid was assayed according to the method described in. […] RAW 264.7 cells were cholesterol-loaded through the scavenger receptor by 24-hour incubation with acetylated LDL as described in Smith et al., J. Biol. Chem., 271:30647-30655 (1996). Briefly, RAW 264.7 cells in 24-well dishes were cholesterol-loaded and labeled overnight in 0.5 ml of DMEM supplemented with 50 μl/ml 1M glucose, 10 μl/ml 200 mM glutamine and 2% BSA and with 50 μg/ml acetylated low density lipoprotein (AcLDL) and [^3H]-cholesterol which had been pre-incubated for 30 minutes at 37° C. with AcLDL to yield a final concentration of 0.33 μCi/ml [^3H]-cholesterol. Cells were subsequently washed five times with PBS containing 1% BSA and incubated overnight (16-18 hours) in DMEM/BSA to allow for equilibrium of cholesterol pools. After equilibrium of cholesterol pools, cells were rinsed four times with PBS/BSA and incubated for one hour at 37° C. with DMEM/BSA before the efflux incubations. Efflux medium (DMEM/BSA) containing either albumin alone (control), albumin plus HDL (40 μg protein/ml), or albumin plus apo A-I (10 μg/ml, Biodesign International, Kennebunk, Me.) was added and the cells were incubated for 4, 24, or 48 hours. […] The radioactivity found in the culture medium was measured by scintillation counting after a 15-minute centrifugation at 12,000 g. The radioactivity in the cells was measured by scintillation counting after solubilization in 0.5 ml of 0.2M NaOH (Smith et al., J. Biol. Chem., 271:30647-30655 (1996)) or extraction in hexane:isopropanol (3:2 v/v) as described in Francis, et al., J. Clin. Invest., 96, 78-87 (1995). […] The efflux of cholesterol or phospholipid was expressed as the percentage of tritiated lipid counts in the medium over the total tritiated lipid counts recovered from the cells and medium (cpm medium/cpm (medium+lysate)×100).
Briefly, RAW 264.7 cells suspended at a density of 1.25×10^5 cells/ml were grown in DMEM/10% FBS supplemented with pyruvate. After 24 hours, the medium was removed and replaced with DMEM/BSA plus radiolabeled cholesterol (1 μCi/ml ^3[H]-cholesterol) and 50 μg/ml of acetylated LDL for 24 hours. The cells were then maintained for 24 hours in equilibrium medium consisting of DMEM/BSA plus either apo A-I alone (20 μg/ml), apo A-I and 8-bromo 3′, 5′ cAMP (1 mM) or apo A-I and rolipram (50 μM).

[6] = test system: ABC1 mRNA; assay: ABC1 mRNA by RT-PCR in RAW 264.7 cells; assay type: cell-based, mouse; conditions: single ligand 10 μM, 24 hours, serum-free DMEM/BSA
Experimental: RT-PCR: Quantitative PCR was carried out using the GeneAmp 5700 Sequence. Detection System (Perkin-Elmer Applied Biosystems, Foster City, Calif.). Briefly, 500 ng of DNase-treated mRNA was reverse transcribed using random hexamer primers at 2.5 μM. Approximately 5% of this reaction was amplified by PCR using the SYBR green core kit (PE. Applied Biosystems, Foster City, Calif.; Cat. #4304886) and human ABC1 primers LF: 5′-[…] (SEQ ID NO: 11) and LR: 5′-[…] (SEQ ID NO: 12) to yield an 82 bp fragment corresponding to nucleotides 7018-7099 of human ABC1. PCR cycle conditions were as follows: 10 minutes 95° C.; followed by 40 cycles of 95° C., 15 seconds; and 60° C., 60 seconds. The mRNA in each sample was quantitated by detecting the increase in fluorescence caused by SYBR green binding to the double-stranded amplification product generated during each PCR cycle. All samples were run in triplicate and normalized against 0-actin mRNA, amplified in parallel reactions with primers actinF: 5′-[…] (SEQ ID NO: 54) and actinB: 5′-[…] […]
Mouse RAW 264.7 cells were grown to subconfluence in DMEM/10% FBS and then treated for 24 hours in serum-free DMEM/BSA with either 9-cis retinoic acid (10 μM), 20-hydroxycholesterol (10 μM), or both ligands together (20 μM total). […] RNA was extracted, treated with DNase, and ABC1 mRNA measured by RT-PCR using PE Biosystems SYBR Green Technology as described in Example 9.

[7] = test system: normal skin fibroblasts; assay: Apo A-I-mediated cholesterol efflux after antisense inhibition of ABC1 mRNA; assay type: cell-based, human; conditions: 30 μM oligonucleotide, apo A-I-mediated efflux after 12 hours
Experimental: Normal skin fibroblasts were labeled with [^3H]cholesterol as described in Example 1.
The cells were then loaded with oligonucleotide by scraping in the presence of either 30 μM control. Morpholino oligonucleotide (5′-[…]-3′ corresponding to the antisense complement of a β-globin thalassemic mRNA; SEQ ID NO: 52) or […] ABC1 antisense. Morpholino oligonucleotide (5′-[…]-3′; SEQ ID NO: 53) and reseeding on new dishes. Control cells were mock-loaded after [^3H]cholesterol-labeling by scraping and reseeding in the absence of oligonucleotide. […] The results are shown in FIG. 6 as the mean±SEM of three separate experiments, normalized to the value for apo A-I-specific efflux in the absence of oligonucleotide in each experiment.

[8] = test system: ABC1 5' flanking region with mutated sterol response element; assay: Luciferase reporter construct 1080-1643 with mutated sterol response element in RAW 264.7 cells; assay type: cell-based, mouse; conditions: mutated sequence nt 1080-1643, sterol response element mutated
Experimental: as §1
Transfection of Reporter Constructs: The RAW 264.7 cells were maintained in culture and transfected with either pGL3-Basic (1 μg), pAPR1 (1 μg), or one of the other reporter constructs according to the method described in Example 15. […] The luciferase activity was measured and reported as relative light units as described in Example 15. […]

## O=C1OC(c2ccc(O)c(S(=O)(=O)O)c2)(c2ccc(O)c(S(=O)(=O)O)c2)c2c(Br)c(Br)c(Br)c(Br)c21 [BSP, sulphobromophthaleine]
[1]
  anion transport activities of ABC1: inhibit
[2]
  effect on apo A-I-mediated efflux of tritiated cholesterol: inhibit

## CC1=C(/C=C/C(C)=C\C=C\C(C)=C\C(=O)O)C(C)(C)CCC1 [9-cis retinoic acid]
[3]
  transcriptional response (luciferase activity): produced a transcriptional response
[4]
  increase in luciferase reporter activity compared with EtOH control: 16 fold
[5]; 0.3 ng/ml 9-cis-RA with apo A-I
  cholesterol efflux: 1522 c.p.m.
[5]; 3.0 ng/ml 9-cis-RA with apo A-I
  cholesterol efflux: 3568 c.p.m.
[5]; 30 ng/ml 9-cis-RA with apo A-I
  cholesterol efflux: 8597 c.p.m.
[5]
  increase in apoAI-induced cholesterol efflux: ~3 fold
[6]
  ABC1 mRNA expression: increase in ABC1 mRNA expression

## CC(C)OC(=O)C(C)(C)Oc1ccc(C(=O)c2ccc(Cl)cc2)cc1 [fenfibrate]
[5]
  increase in apoAI-induced cholesterol efflux: ~2 fold

## ABC1 antisense. Morpholino oligonucleotide: Morpholino 5′-CATGTTGTTCATAGGGTGGGTAGCTC-3′; SEQ ID NO: 53, directed against ABC1 mRNA (all phosphorodiamidate morpholino (PMO))
[7]
  reduction in cholesterol efflux compared with control anti-sense oligonucleotide: 50%

## CC(C)CC[C@@H](O)[C@@H](C)[C@H]1CC[C@H]2[C@@H]3CC=C4C[C@@H](O)CC[C@]4(C)[C@H]3CC[C@]12C [22(R)-hydroxycholesterol]
[8]
  transcriptional response (luciferase activity): did not produce a transcriptional response

## CCCCC[C@H](O)/C=C/[C@H]1[C@H](O)CC(=O)[C@@H]1CCCCCCC(=O)O [PGE1, prostaglandin E1]
[5]
  increase in apoAI-induced cholesterol efflux: ~3 fold

## CC(C)CCC[C@](C)(O)[C@H]1CC[C@H]2[C@@H]3CC=C4C[C@@H](O)CC[C@]4(C)[C@H]3CC[C@@]21C [20(S)-hydroxycholesterol]
[8]
  transcriptional response (luciferase activity): did not produce a transcriptional response
[3]
  transcriptional response (luciferase activity): produced a transcriptional response
[6]
  ABC1 mRNA expression: increase in ABC1 mRNA expression

## CCCCC[C@H](O)/C=C/[C@@H]1[C@H]2C/C(=C/CCCC(=O)O)O[C@H]2C[C@H]1O [PGI2, prostacyclin PGI2]
[5]
  increase in apoAI-induced cholesterol efflux: ~2 fold

— patent US6835563B1, “Compositions and methods for increasing cholesterol efflux and raising HDL ATP binding cassette transporter protein ABC1” (CV Therapeutics, priority 1999, dated 2004)
